The compounds below were run against T1, recombinant human glucokinase (Homo sapiens, UniProt P35557) (assay: Assay 2: Evaluating Activator Potency in a Matrix Assay at Multiple Glucose Concentrations). Conditions: Assay 2 matrix assay; 16 glucose concentrations; intrinsic EC50 = concentration affording a 50% reduction in the enzyme's Km (for glucose); read-out: Glucokinase EC50.
T1 construct: Full-length glucokinase (beta cell isoform) was His-tagged at the N-terminus and purified by a Ni column followed by size exclusion chromatography as described above; His tag; made in house; host or cells: E. coli BL21(DE3), vector pBCGK
T1 sequence (P35557 1-465): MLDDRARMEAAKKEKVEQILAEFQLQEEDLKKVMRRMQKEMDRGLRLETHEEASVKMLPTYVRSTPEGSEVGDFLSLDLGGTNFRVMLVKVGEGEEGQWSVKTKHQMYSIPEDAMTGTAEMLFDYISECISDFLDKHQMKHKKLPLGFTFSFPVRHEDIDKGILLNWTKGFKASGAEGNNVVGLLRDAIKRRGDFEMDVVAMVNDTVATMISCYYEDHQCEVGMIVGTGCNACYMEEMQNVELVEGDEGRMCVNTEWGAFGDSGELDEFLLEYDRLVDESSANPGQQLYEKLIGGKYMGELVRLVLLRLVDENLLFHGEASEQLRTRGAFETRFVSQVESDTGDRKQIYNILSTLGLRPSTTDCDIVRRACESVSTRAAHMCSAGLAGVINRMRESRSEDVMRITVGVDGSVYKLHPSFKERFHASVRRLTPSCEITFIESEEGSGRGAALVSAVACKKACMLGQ
Assay type: biochemical
Method: Representative compounds of this invention were evaluated in biochemical assays (Assay 1 or Assay 2) to characterize their glucokinase activation properties.
The recombinant human glucokinase protein utilized in both assays was prepared and purified as described below.
BL21(DE3) cells (Invitrogen Corporation, Carlsbad, Calif.) containing pBCGK (C or N H is) vector were grown at 37° C. (in 2XYT) until the OD600 was between 0.6-1.0. Expression was induced by addition of isopropylthiogalactoside to a final concentration of 0.1-0.2 mM to the cells which were then incubated overnight at 23° C. The next day, cells were harvested via centrifugation at 5000 rpm for 15 minutes at 4° C. The cell pellet was stored at −80° C. for future purification.
Beta Cell Glucokinase His-Taq Purification Conditions: A Ni-NTA (Quigan, Germantown, Md.) column (15-50 mL) was used for separation. Two buffers were prepared, 1) a lysis/nickel equilibration and wash buffer and 2) a nickel elution buffer. The lysis/equilibration/wash buffer was prepared as such: 25 mM HEPES buffer at pH 7.5, 250 mM NaCl, 20 mM imidazole, and 14 mM β-mercaptoethanol as final concentrations. The elution buffer was prepared as such: 25 mM HEPES at pH 7.5, 250 mM NaCl, 400 mM imidazole, and 14 mM β-mercaptoethanol as final concentrations. The buffers were each filtered with a 0.22 μm filter prior to use. The cell pellet (1 L culture) was resuspended in 300 mL of the lysis/equilibration buffer. The cells were then lysed (3 times) with a Microfluidics Model 110Y microfluidizer (Microfluidics Corporation, Newton, Mass.). The slurry was centrifuged with a Beckman Coulter Model LE-80K ultracentrifuge (Beckman Coulter, Fullerton, Calif.) at 40,000 rpm for 45 minutes at 4° C. The supernatant was transferred to a chilled flask. A volume of 20 μl was saved for gel analysis. A Pharmacia AKTA (GMI, Inc., Ramsey, Minn.) purification system was used for separation. The prime lines were purged with lysis/equilibration buffer. The Ni-NTA column was equilibrated with 200 mL of the lysis/equilibration buffer at a flow rate of 5 mL/minute. The supernantant was loaded over the column at 4 mL/minute and the flow-through was collected in a flask. The unbound proteins were washed with lysis/equilibration buffer at a flow rate of 5 mL/minute until the ultraviolet reaches baseline. The protein was then eluted from the column with the imidazole elution buffer via imidazole gradient 20 mM to 400 mM over 320 mL. The column was then stripped of any additional protein with 80 mL of the elution buffer. The elution fractions were each 8 mL, for a total yield of 50 samples. Fractions were analyzed by sodium dodecyl sulfate polyacrylamide (SDS-PAGE) and the fractions containing protein of interest were pooled and concentrated to 10 mL using ultrafiltration cell with a 10,000 molecular weight cut-off (MWCO) Millipore membrane (Sigma-Aldrich, St. Louis, Mo.) under nitrogen gas (60 psi). Protein was further purified by size exclusion chromatography (SEC) using a […] (320 mL) (Amersham Pharmacia, Uppsala, Sweden). SEC was equilibrated with 450 mL sizing buffer containing 25 mM HEPES pH 7.0, 50 mM NaCl, and 5 mM dithiothreitol. Concentrated protein was then loaded over SEC and elution with 400 mL sizing buffer was performed overnight at 0.5 mL/minute. The elution fractions were 5 mL each. The fractions were analyzed by SDS-PAGE and protein containing fractions were pooled. Concentration was measured using Bradford Assay/BSA Standard. Purified protein was stored in small aliquots at −80° C.
Assay 2: Evaluating Activator Potency in a Matrix Assay at Multiple Glucose Concentrations
Utilizing an adaptation of this method, representative compounds of the current invention were evaluated at 22 different concentrations and 16 different glucose concentrations in a coupled enzyme assay system that detects glucokinase activity via depletion of β-NADH.

Structure (SMILES)	EC50
CCn1cc2c(Oc3ccc(S(C)(=N)=O)cc3)cc(C(=O)Nc3ccc(C)cn3)cc2n1 (single isomer, unassigned) [Example 1CX, 2-ethyl-N-(5-methylpyridin-2-yl)-4-[4-(S-methylsulfonimidoyl)phenoxy]-2H-indazole-6-carboxamide]	1370 nM
Cn1cc2c(Oc3cnc(C(=O)N4CCC4)cn3)cc(C(=O)Nc3cnn(C)n3)cc2n1 [Example 1AH, 4-(5-(azetidine-1-carbonyl)pyrazin-2-yloxy)-2-methyl-N-(2-methyl-2H-1,2,3-triazol-4-yl)-2H-indazole-6-carboxamide]	36000 nM
Cc1cnc(NC(=O)c2cc(Oc3ccc(S(=O)(=O)N(C)C)nc3)c3cn(C)nc3c2)cn1 [Example 1AL, 4-({6-[(dimethylamino)sulfonyl]pyridin-3-yl}oxy)-2-methyl-N-(5-methylpyrazin-2-yl)-2H-indazole-6-carboxamide]	3170 nM
CN(C)S(=O)(=O)c1ccc(Oc2cc(C(=O)Nc3ccn(C)n3)cc3nn(C)cc23)cn1 [Example 1AM, 4-({6-[(dimethylamino)sulfonyl]pyridin-3-yl}oxy)-2-methyl-N-(1-methyl-1H-pyrazol-3-yl)-2H-indazole-6-carboxamide]	3880 nM
Cn1ccc(NC(=O)c2cc(Oc3ccc(S(C)(=O)=O)nc3)c3cn(C)nc3c2)n1 [Example 1AO, 2-methyl-N-(1-methyl-1H-pyrazol-3-yl)-4-{[6-(methylsulfonyl)pyridin-3-yl]oxy}-2H-indazole-6-carboxamide]	1290 nM
Cc1ccc(NC(=O)c2cc(Oc3ccc(S(C)(=O)=O)nc3)c3cn(C)nc3c2)nc1 [Example 1AP, 2-methyl-N-(5-methylpyridin-2-yl)-4-{[6-(methylsulfonyl)pyridin-3-yl]oxy}-2H-indazole-6-carboxamide]	1430 nM
Cc1cnc(NC(=O)c2cc(Oc3ccc(S(C)(=O)=O)nc3)c3cn(C)nc3c2)cn1 [Example 1AQ, 2-methyl-N-(5-methylpyrazin-2-yl)-4-{[6-(methylsulfonyl)pyridin-3-yl]oxy}-2H-indazole-6-carboxamide]	5370 nM
CCn1cc2c(Oc3cnc(NS(C)(=O)=O)cn3)cc(C(=O)Nc3ccc(C)cn3)cc2n1 [Example 1AT, 2-ethyl-N-(5-methylpyridin-2-yl)-4-({5-[(methylsulfonyl)amino]pyrazin-2-yl}oxy)-2H-indazole-6-carboxamide]	4920 nM
Cn1ccc(NC(=O)c2cc(Oc3ccc(S(N)(=O)=O)cc3)c3cn(C)nc3c2)n1 [Example 1AU, 4-[4-(aminosulfonyl)phenoxy]-2-methyl-N-(1-methyl-1H-pyrazol-3-yl)-2H-indazole-6-carboxamide]	6220 nM

Results, then the compound that gave them:

EC50	Structure (SMILES)
555 nM	CCn1cc2c(Oc3ccc(S(C)(=N)=O)cc3)cc(C(=O)Nc3ccc(C)cn3)cc2n1 (single isomer, unassigned) [Example 1CW, 2-ethyl-N-(5-methylpyridin-2-yl)-4-[4-(S-methylsulfonimidoyl)phenoxy]-2H-indazole-6-carboxamide]
532 nM	CCn1cc2c(Oc3cnc(C(=O)N(C)C)cn3)cc(C(=O)Nc3cnc(OC)cn3)cc2n1 [Example 1AF, 4-(5-(dimethylcarbamoyl)pyrazin-2-yloxy)-2-ethyl-N-(5-methoxypyrazin-2-yl)-2H-indazole-6-carboxamide]
713 nM	Cc1cnc(NC(=O)c2cc(Oc3ccc(C(=O)N(C)C)cc3)c3cn(C)nc3c2)cn1 [Example 1AG, 4-(4-(dimethylcarbamoyl)phenoxy)-2-methyl-N-(5-methylpyrazin-2-yl)-2H-indazole-6-carboxamide]
703 nM	CN(C)S(=O)(=O)c1ccc(Oc2cc(C(=O)Nc3cnn(C)n3)cc3nn(C)cc23)cc1 [Example 1AJ, 4-{4-[(dimethylamino)sulfonyl]phenoxy}-2-methyl-N-(2-methyl-2H-1,2,3-triazol-4-yl)-2H-indazole-6-carboxamide]
878 nM	CNS(=O)(=O)c1ccc(Oc2cc(C(=O)Nc3cnc(C)cn3)cc3nn(C)cc23)cc1 [Example 1AK, 4-{4-[(methylamino)sulfonyl]phenoxy}-2-methyl-N-(5-methylpyrazin-2-yl)-2H-indazole-6-carboxamide]
532 nM	CCn1cc2c(Oc3cnc(N(C)S(C)(=O)=O)cn3)cc(C(=O)Nc3ccc(C)cn3)cc2n1 [Example 1AN, 2-ethyl-4-({5-[methyl(methylsulfonyl)amino]pyrazin-2-yl}oxy)-N-(5-methylpyridin-2-yl)-2H-indazole-6-carboxamide]
545 nM	Cc1ccc(NC(=O)c2cc(Oc3ccc(S(C)(=O)=O)cc3C(F)(F)F)c3cn(C)nc3c2)nc1 [Example 1AR, 2-methyl-N-(5-methylpyridin-2-yl)-4-[4-(methylsulfonyl)-2-(trifluoromethyl)phenoxy]-2H-indazole-6-carboxamide]
817 nM	Cc1ccc(NC(=O)c2cc(Oc3ccc4c(c3)CCS4(=O)=O)c3cn(C)nc3c2)nc1 [Example 1AV, 4-[(1,1-dioxido-2,3-dihydro-1-benzothien-5-yl)oxy]-2-methyl-N-(5-methylpyridin-2-yl)-2H-indazole-6-carboxamide]
986 nM	CCn1cc2c(Oc3ccc4c(c3)CCS4(=O)=O)cc(C(=O)Nc3ccc(C)cn3)cc2n1 [Example 1AW, 4-[(1,1-dioxido-2,3-dihydro-1-benzothien-5-yl)oxy]-2-ethyl-N-(5-methylpyridin-2-yl)-2H-indazole-6-carboxamide]
567 nM	CCn1cc2c(Oc3ccc(S(C)(=O)=O)cc3)cc(C(=O)Nc3cnc(OC)cn3)cc2n1 [Example 1AX, 2-ethyl-N-(5-methoxypyrazin-2-yl)-4-[4-(methylsulfonyl)phenoxy]-2H-indazole-6-carboxamide]
673 nM	CCS(=O)(=O)N(C)c1cnc(Oc2cc(C(=O)Nc3ccc(C)cn3)cc3nn(C)cc23)cn1 [Example 1AY, 4-({5-[(ethylsulfonyl)(methyl)amino]pyrazin-2-yl}oxy)-2-methyl-N-(5-methylpyridin-2-yl)-2H-indazole-6-carboxamide]

Same assay, conditions: Glucokinase EC50, Assay 2 matrix assay; 16 glucose concentrations; intrinsic EC50 = concentration affording a 50% reduction in the enzyme's Km (for glucose)

Structure (SMILES)	EC50
Cc1cnc(NC(=O)c2cc(Oc3ccc(S(=O)(=O)N(C)C)cc3)c3cn(C)nc3c2)cn1 [Example 1AI, 4-{4-[(dimethylamino)sulfonyl]phenoxy}-2-methyl-N-(5-methylpyrazin-2-yl)-2H-indazole-6-carboxamide]	431 nM
Cc1cnc(NC(=O)c2cc(Oc3ccc(S(N)(=O)=O)cc3)c3cn(C)nc3c2)cn1 [Example 1AS, 4-[4-(aminosulfonyl)phenoxy]-2-methyl-N-(5-methylpyrazin-2-yl)-2H-indazole-6-carboxamide]	2280 nM

Reference: patent US20110319379A1, “Substituted Indazole Amides And Their Use As Glucokinase Activators” (priority 2009, published 2011)
